Where a SMILES comes first, the peptide text is derived from it.
What was measured:
MN9D neuronal cells [1] = experiment: Protection of mitochondrial potentials against rotenone, MPP+ and TaClo-induced cytotoxicity; assay type: cell-based; settings: 100 nM pretreatment, 1, 3, 12, 24 hours
Description: (§1) Testing involved permutations of size and diversifying amino acid sequence at each residue position. Sequence design began with Proline-Proline-Glutamate-Alanine-Proline-Alanine-Glutamate-Aspartate-Arginine-Serine-Leucine-NH2. […] These properties were tested using the dopaminergic MN9D neuronal cell line. Each candidate peptide sequence was dissolved in citrate buffer and added to MN9D cells (Choi et al., 1992) that were cultured in Dulbecco's Modified Eagle's Medium [DMEM (containing pyridoxol HCl); Sigma, St. Louis, MO] supplemented with 10% Fetal Bovine serum (HyClone, Logan, UT), 50 U/ml penicillin and streptomycin to a final 100 nM concentration. Using LIVE/DEAD and JC-1 assays in MN9D neuronal cells, individual library sequences were measured for toxicity and loss of mitochondrial potentials at 1 and 3 hours post treatment. […] The remaining sequences were then tested for their ability to provide protection against neurotoxins rotenone, 1-methyl-4-phenylpyridinium (MPP+), and trichloromethyl-1,2,3,4-tetrahydro-β-carboline (TaClo).

MN9D neuronal cells [2] = experiment: LIVE/DEAD and JC-1 assays for toxicity and loss of mitochondrial potentials; settings: 100 nM, 1 and 3 hours post treatment
Description: as §1

depression = settings: person, intranasal spray 50 mg daily for 270 days
Description: A person presents with the diagnosis of depression. They are administered peptide by intranasal spray at a dosage of 50 mg daily for 270 days. At 1, 90, 180, 270 and 360 days they are tested/retested with a battery of mental status tests including Hamilton Depression Scale (HAMD), Mini Mental Status Exam (MMSE), Beck Depression Index (BDI), Montgomery-Asberg Depression Rating Scale (MADRS), Clinical Global Impression Scale (CGI), Patient Global Impression Scale (PGI), Structural Clinical Interview for Diagnostic and Statistic Manual of Mental Disorders IV (SCID).

## C[C@H](NC(=O)[C@@H]1CCCN1C(=O)[C@H](C)NC(=O)[C@@H](N)CCC(=O)O)C(=O)N[C@@H](CCC(=O)O)C(=O)N[C@@H](CC(=O)O)C(N)=O [SEQ ID NO: 11, Glutamate-Alanine-Proline-Alanine-Glutamate-Aspartate-NH2] (H-EAPAED-NH2; N-terminus assumed)
MN9D neuronal cells [1]
  protection against neurotoxins (rotenone, MPP+, TaClo): protection against neurotoxin exposure at all time points measured
MN9D neuronal cells [2]
  toxicity: low toxicity

## Ac-Leucine-D-Methionine-Proline-Alanine-deuterated Serine-Phenylalanine [SEQ ID NO: 9]
depression
  HAMD from day 1 over 360 days: improvement in HAMD
